Several values for one entry are separate records, joined by “and”; a condition that tells them apart may be missing. Identical values can stand only once. Like-named read-outs stand apart in the source and are kept apart here. * marks the point of attachment. ACC = NC(=O)Cc1cc(=O)oc2cc(N*)ccc12; CH2Cl = ClC*
What was measured:
[1] = target: T1, NSP4 (Homo sapiens, UniProt Q6UWY2); test: Fluorogenic substrate hydrolysis kinetics with NSP4; format: biochemical
T1 construct: made in house
T1 sequence (Q6UWY2 32-283): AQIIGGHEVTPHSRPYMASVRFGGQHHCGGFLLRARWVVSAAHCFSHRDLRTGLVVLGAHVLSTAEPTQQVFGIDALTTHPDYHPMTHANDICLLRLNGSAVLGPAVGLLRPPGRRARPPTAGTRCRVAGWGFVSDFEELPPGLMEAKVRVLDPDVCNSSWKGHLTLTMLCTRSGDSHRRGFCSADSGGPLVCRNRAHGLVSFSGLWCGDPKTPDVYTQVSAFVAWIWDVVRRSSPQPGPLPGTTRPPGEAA
Procedure: (§1) Kinetic parameters of selected substrates were determined in 50 mM Hepes, 0.1 M NaCl, 0.1%TRITON-X100, pH 7.45 assay buffer on 96 wells Corning plates. Measurements were performed for a minimum of 20 minutes. The excitation wavelength was 355 nm, and the emission wavelength was 460 nm, with a cutoff of 455 nm. Human NE and CatG were purchased from Biocentrum, Krakow, Poland and PR3 from Athens Research Technology, Athens, Georgia, USA. Recombinant human NSP4 was expressed and purified as previously described.
To 20μl of substrates dissolved in assay buffer at known concentration ranges (PK421 and PK431–320–1μM, PK417 and PK418–460–27μM), 80μl of NSP4 (2.9nM), preincubated for 20 minutes at 37°C in buffer, was added. Km, kcat and kcat/Km parameters/constants were calculated using GraphPad Prism and Excel software. Each experiment was repeated three times, and the results are presented as an average +/- S.D.

[2] = target: T2, PR3 (Homo sapiens, UniProt P24158); test: Fluorogenic substrate hydrolysis kinetics with PR3; format: biochemical
T2 construct: purchased Athens Research Technology, Athens, Georgia, USA
T2 sequence (P24158 28-256): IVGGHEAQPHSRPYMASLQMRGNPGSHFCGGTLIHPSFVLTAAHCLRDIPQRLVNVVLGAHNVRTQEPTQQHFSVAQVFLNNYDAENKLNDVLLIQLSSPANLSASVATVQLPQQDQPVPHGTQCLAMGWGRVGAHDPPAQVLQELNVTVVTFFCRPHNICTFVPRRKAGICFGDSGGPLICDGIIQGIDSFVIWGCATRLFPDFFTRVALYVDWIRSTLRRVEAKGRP
Procedure: as §1
(§2) In addition to NSP4, neutrophils contain three other structurally-related serine proteases NE, PR3 and CatG [1] that are also stored in azurophilic granules. To estimate the degree of eventual cross reactivity of the optimal substrate with these three serine proteases, we measured kinetic parameters for each enzyme on PK421. […] In the case of CatG we were unable to saturate the enzyme and therefore could not calculate the individual values of kcat and Km.

[3] = target: T3, NE (Homo sapiens, UniProt P08246); test: Fluorogenic substrate hydrolysis kinetics with NE; format: biochemical
T3 construct: purchased Biocentrum, Krakow, Poland
T3 sequence (P08246 30-267): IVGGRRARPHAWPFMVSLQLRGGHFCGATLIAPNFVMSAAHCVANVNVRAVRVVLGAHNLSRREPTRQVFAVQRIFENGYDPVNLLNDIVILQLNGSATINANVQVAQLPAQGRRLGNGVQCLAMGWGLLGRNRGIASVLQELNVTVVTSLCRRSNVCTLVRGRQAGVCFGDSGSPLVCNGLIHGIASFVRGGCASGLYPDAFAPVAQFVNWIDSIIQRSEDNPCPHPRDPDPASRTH
Procedure: as §1, §2

[4] = target: T1, NSP4; test: SDS-PAGE / streptavidin blot labeling of purified NSP4 by probe; format: binding; conditions: 100 nM NSP4 preincubated with inhibitor 30 min 37°C, then PK401 up to 2000 nM for 20 min
Procedure: 100nM of NSP4 was incubated with competing inhibitor—Ac-IVPR-CMK for 30 minutes at 37°C and then treated with different concentrations of probe—PK401 (2000nM and 1000nM) for 20 minutes at 37°C. Separately, 100nM of NSP4 was incubated with five different concentrations of probe- 2000nM, 1000nM, 100nM, 10nM, and 1 nM for 20 minutes in 37°C. As a control 100nM PK401 was incubated with assay buffer.
Samples were denatured and run in 4–12% SDS PAGE following transfer to nitrocellulose membrane. The membrane was blocked with 1.5% BSA in TBST overnight at 4°C and treated with IRDye800CW Streptavidin (dilution 1:10000 with 1.5% BSA in TBST) for 45 minutes. Then enzyme was visualized using a Li-cor fluorescence imager and Odyssey Molecular Modeling Software.
SDS-page and Western Blot […]
A standard SDS broad spectrum marker (Biorad) was used (Fig. 4A, lane 1). […]
minutes in 37° C (Fig. 4, lanes 4, 5, 6, 7, 8). […] Then enzyme was visualized using a Li-cor fluorescence imager and Odyssey Molecular Modeling Software. […]
The membrane was blocked with 1.5% BSA in TBST overnight at 4° C and treated with IRDye800CW Streptavidin (dilution 1:10000 with 1,5% BSA in TBST) for 45 minutes. Then PK401 was visualized using a Li-cor fluorescence imager and Odyssey Molecular Modeling Software.

[5] = Table 1, NSP4 2.9 nM preincubated 20 min 37°C, 50 mM Hepes, 0.1 M NaCl, 0.1% TRITON-X100, pH 7.45, ACC fluorescence ex 355/em 460 nm, average ± S.D., minimum of 2 experiments, SD, read-out: Km
[6] = Table 1, NSP4 2.9 nM, Hepes buffer pH 7.45, 37°C, ACC fluorescence, average ± S.D., minimum of 2 experiments, SD
[7] = Table 1 and text, NSP4 2.9 nM, Hepes buffer pH 7.45, 37°C, ACC fluorescence, average ± S.D., minimum of 2 experiments
[8] = Table 2, hydrolysis by NSP4, Hepes buffer pH 7.45

Substance | Km [1, 5] [µM] | kcat [1, 6] | kcat/Km [1, 7] | further results
Ac-hCha-Phe(guan)-Pro-Arg-ACC [PK431, fluorogenic NSP4 substrate with unnatural amino acids] | 53 ± 0.8 | 1.2 ± 0.017 s⁻¹ | 23000 ± 11 M⁻¹ s⁻¹ | Km ([1]; Table 3, assay substrate for NSP4, read-out: Km of the substrate used for analysis): 53 ± 0.8 µM
Ac-Glu(OBzl)-Lys(Ac)-hPro(OBzl)-Abu-ACC [assay substrate for PR3, reference compound] | – | – | – | Km ([2]; Table 3, assay substrate for PR3, read-out: Km of the substrate used for analysis): 13.7 ± 0.67 µM
Ac-RVPR-{ACC} (SMILES CC(=O)N[C@@H](CCCNC(=N)N)C(=O)N[C@H](C(=O)N1CCC[C@H]1C(=O)N[C@@H](CCCNC(=N)N)C(=O)Nc1ccc2c(CC(N)=O)cc(=O)oc2c1)C(C)C) [PK418, fluorogenic NSP4 substrate of natural amino acids] | 67 ± 10 | 0.06 ± 0.003 x 10^−3 s^-1 | 960 ± 190 M⁻¹ s⁻¹ | –
Ac-hCha-Phe(guan)-Oic-Arg-ACC [PK421, optimal fluorogenic NSP4 substrate with unnatural amino acids] | 61 ± 9.1 | 2.0 ± 0.54 s⁻¹ | 32000 M⁻¹ s⁻¹ and 32000.0 ± 4500 M⁻¹ s⁻¹ | Increase of kcat/Km relative to PK431 (Pro to Oic at P2) ([1]; NSP4, PK421 versus PK431): 39%; Fold more efficiently cleaved by NSP4 than PK417 (kcat/Km ratio) ([1]; NSP4, versus best substrate of only natural amino acids): around 15 times; kcat [1, 8]: 2.0 ± 0.54 s⁻¹; kcat/Km [1, 8]: 32000 ± 4500 M⁻¹ s⁻¹; Km ([1]; Table 2, hydrolysis by NSP4, Hepes buffer pH 7.45, read-out: Km): 61 ± 9.1 µM; kcat/Km ([2]; Table 2, hydrolysis by PR3, NA = no activity detected): Lack of measurable activity; kcat/Km ([3]; Table 2, hydrolysis by NE, NA = no activity detected): Lack of measurable activity
Ac-Nle(OBzl)-Met(O)2-Oic-Abu-ACC [assay substrate for NE, reference compound] | – | – | – | Km ([3]; Table 3, assay substrate for NE, read-out: Km of the substrate used for analysis): 0.28 ± 0.08 µM
Ac-IVPR-{ACC} (SMILES CC[C@H](C)[C@H](NC(C)=O)C(=O)N[C@H](C(=O)N1CCC[C@H]1C(=O)N[C@@H](CCCNC(=N)N)C(=O)Nc1ccc2c(CC(N)=O)cc(=O)oc2c1)C(C)C) [PK417, fluorogenic NSP4 substrate of natural amino acids] | 96 ± 16 | 0.2 ± 0.02 s⁻¹ | 2100 M⁻¹ s⁻¹ and 2100 ± 300 M⁻¹ s⁻¹ | –
Ac-IVPR-CH2Cl [reference compound] | – | – | – | Effect of NSP4 active site blocking on PK401 binding [4]: prevented binding

— publication PMC4501687, “Design of a Selective Substrate and Activity Based Probe for Human Neutrophil Serine Protease 4” (PLoS ONE, 2015)
